{"source": "patent US6087376A", "about": "(priority 1998, dated 2000)", "key": {"[1]": {"tested_on": "rat striatal synaptosomes", "conditions": "cited from earlier work"}, "[2]": {"tested_on": "rat striatal slices preloaded with [3H]DA", "test": "Mecamylamine antagonism of lobeline-evoked [3H]overflow from rat striatal slices", "assay_type": "cell-based", "design": "lobeline-evoked total [3H]overflow: unit not given here"}, "[3]": {"conditions": "cited from earlier work"}, "[4]": {"tested_on": "nicotine-evoked [3H]dopamine release from rat striatal slices; nicotinic receptors", "test": "Lobeline inhibition of nicotine-evoked [3H]DA release from rat striatal slices", "assay_type": "cell-based", "conditions": "low concentrations", "protocol": "Striatal slices were obtained from rat brain, preincubated with [^3 H]dopamine (0.1 μM) for 30 min and subsequently superfused with Kreb's buffer for 60 min."}, "learning and memory": {"tested_on": "learning and memory", "conditions": "in vivo; cited from earlier work"}, "[5]": {"tested_on": "conditioned place preference in rats", "conditions": "rat, in vivo; cited from earlier work"}, "[6]": {"tested_on": "rat striatal slices preloaded with [3H]DA", "test": "[3H]DA release assay: drug-evoked [3H]overflow / fractional release from rat striatal slices preloaded with [3H]DA", "assay_type": "cell-based", "protocol": "Rat striata were rapidly dissected on ice and were sliced using a McIlwain tissue chopper. […] Slices were rinsed with 15 mL fresh buffer and then incubated in fresh buffer containing 0.1 μM [^3 H]DA (6-8 slices/3 mL) for an additional 30 min. Subsequently, slices were rinsed with 15 mL fresh buffer and transferred to a glass superfusion chamber. […] After 60 min of superfusion when basal outflow was stabilized, two 5-min samples (5 mL) were collected to determine basal [^3 H]outflow.\nThe concentration-response for each drug was determined using a repeated-measures design.\nThe pH and volume of the solubilized tissue samples were adjusted to those of the superfusate samples.\nFractional release for each superfusate sample was calculated by dividing the tritium collected in each sample by the total tritium present in the tissue at the time of sample collection. Fractional release was expressed as a percentage of total tritium in the tissue at the time of sample collection. Basal outflow was calculated from the average of the tritium collected in the two 5-min samples just before the addition of drug.\nInhibition of synaptosomal and vesicular [^3 H]DA uptake were analyzed by repeated-measures, one-way ANOVA, and by an iterative nonlinear least-squares curve-fitting program (GraphPAD-PRIZM; GraphPAD, San Diego, Calif.) to obtain IC50 values. Dunnett's post hoc test was used to compare treatment means to a single control mean. Also, Duncan's New Multiple Range Test or Fisher's LSD post hoc analysis were used to compare pairs of treatment means. Duncan's New Multiple Range Test was used when significant one-way ANOVA's were obtained or when significant main effects were obtained in the two-way ANOVA's. Fisher's LSD post hoc analysis is a more conservative test, which takes into account error which cumulates during multiple comparisons of pairs of means. Fisher's LSD analysis was used when the interaction term was significant in the two-way ANOVAs, specifically in the post hoc analysis of drug×time interactions. Statistical significance was reached when P<0.05 (two-tailed, unless otherwise indicated)."}, "[7]": {"tested_on": "rat striatal synaptic vesicles", "test": "[3H]DA release from striatal synaptic vesicles preloaded with [3H]DA", "assay_type": "biochemical", "protocol": "The homogenate was then centrifuged at 2,000×g for 10 min at 4° C. and the resulting supernatant was centrifuged at 10,000×g for 30 min at 4° C. Synaptosomes (buffy coat) were separated from the underlying mitochondria and cellular debris (reddish pellet) by gentle swirling in 2 mL of 0.32 M sucrose. The enriched synaptosome fraction (2.0 mL) was subjected to osmotic shock by addition of 7 mL distilled H2 0 and was homogenized with 5 up and down strokes of the TEFLON pestle. The osmolarity was restored by the addition of 900 μL of 0.25 M HEPES and 900 μL of 1.0 M neutral potassium-tatrate buffer (pH 7.5) followed by a 20 min centrifugation (20,000×g at 4° C.). The supernatant was then centrifuged for 60 min (55,000×g at 4° C.).\nThe final vesicle pellet from a pool of striata from three rats was resuspended in 3 mL of release assay buffer (in mM: 25 HEPES, 100 L-(+)-tartaric acid dipotassium salt, 0.05 EGTA, 0.10 EDTA, 2 Mg^2+ -ATP, and 1.7 ascorbic acid, pH 7.4) and then incubated with [^3 H]DA (0.3 μM) for 8 min at 37° C. […] [^3 H]DA efflux represents the net result of events, i.e., release and reuptake. […] The reaction was terminated by addition of 2.5 mL of ice-cold assay buffer containing 2 mM MgSO4. Samples were rapidly filtered through Whatman GF/F filters using the Brandel cell harvester.\nThe amount of drug-induced [^3 H]DA release from synaptic vesicles was calculated by subtracting the amount of tritium remaining in the drug-exposed samples from that remaining in the control samples (in the absence of drug). The amount of drug-induced [^3 H]DA release was then divided by the amount of tritium remaining in the control samples and was expressed as a percentage of control.\nConcentration-response and kinetic data were analyzed by repeated-measures one-way ANOVA and between-group one-way ANOVA, respectively. When appropriate, Fisher's least significant difference post hoc test was used to determine significant differences between treatment means. IC50 and EC50 values were obtained by an iterative nonlinear least-squarescurve-fitting program (GraphPAD-PRIZM: GraphPAD, San Diego, Calif., U.S.A.) for one-site competition and sigmoidal concentration response, respectively. The t1/2 was obtained by an iterative nonlinear least-squares curve-fitting program for one-phase decay. KD and Bmax values were obtained by Scatchard analysis using an iterative linear least-squares curve-fitting program."}, "[8]": {"tested_on": "tobacco smoking cessation", "conditions": "short-term use as smoking deterrent; cited from earlier work"}}, "note": "Values joined by “and” are separate entries in the source; they are usually repeats but may differ in a detail not shown here. Identical values can stand only once. “Also recorded” adds a separate entry of the source."}
{"molecule": "CN1[C@@H](CC(=O)c2ccccc2)CCC[C@H]1C[C@H](O)c1ccccc1", "note": "[Lobeline, 2-[G-(β-hydroxyphenethyl)-1-methyl-2-piperidyl]-acetophenone]", "values": [{"measurement": "DA release from superfused striatal synaptosomes", "setting": "[1]", "value": "increase DA release"}, {"measurement": "lobeline-evoked total [3H]overflow", "setting": "[2]; lobeline 0.1 μM, mecamylamine 0 μM", "value": "0.6 ± 0.4"}, {"measurement": "lobeline-evoked total [3H]overflow", "setting": "[2]; lobeline 0.1 μM, mecamylamine 1 μM", "value": "0.9 ± 0.5"}, {"measurement": "lobeline-evoked total [3H]overflow", "setting": "[2]; lobeline 0.1 μM, mecamylamine 10 μM", "value": "0.8 ± 0.3"}, {"measurement": "lobeline-evoked total [3H]overflow", "setting": "[2]; lobeline 0.1 μM, mecamylamine 100 μM", "value": "0.5 ± 0.4"}, {"measurement": "lobeline-evoked total [3H]overflow", "setting": "[2]; lobeline 1 μM, mecamylamine 0 μM", "value": "2.0 ± 0.6"}, {"measurement": "lobeline-evoked total [3H]overflow", "setting": "[2]; lobeline 1 μM, mecamylamine 1 μM", "value": "4.9 ± 1.8"}, {"measurement": "lobeline-evoked total [3H]overflow", "setting": "[2]; lobeline 1 μM, mecamylamine 10 μM", "value": "2.4 ± 0.5"}, {"measurement": "lobeline-evoked total [3H]overflow", "setting": "[2]; lobeline 1 μM, mecamylamine 100 μM", "value": "0.7 ± 0.1"}, {"measurement": "lobeline-evoked total [3H]overflow", "setting": "[2]; lobeline 3 μM, mecamylamine 0 μM", "value": "10.3 ± 0.8"}, {"measurement": "lobeline-evoked total [3H]overflow", "setting": "[2]; lobeline 3 μM, mecamylamine 1 μM", "value": "10.8 ± 1.4"}, {"measurement": "lobeline-evoked total [3H]overflow", "setting": "[2]; lobeline 3 μM, mecamylamine 10 μM", "value": "8.2 ± 1.5"}, {"measurement": "lobeline-evoked total [3H]overflow", "setting": "[2]; lobeline 3 μM, mecamylamine 100 μM", "value": "6.5 ± 0.9"}, {"measurement": "lobeline-evoked total [3H]overflow", "setting": "[2]; lobeline 10 μM, mecamylamine 0 μM", "value": "31.9 ± 2.2"}, {"measurement": "lobeline-evoked total [3H]overflow", "setting": "[2]; lobeline 10 μM, mecamylamine 1 μM", "value": "32.5 ± 1.0"}, {"measurement": "lobeline-evoked total [3H]overflow", "setting": "[2]; lobeline 10 μM, mecamylamine 10 μM", "value": "41.0 ± 6.2"}, {"measurement": "lobeline-evoked total [3H]overflow", "setting": "[2]; lobeline 10 μM, mecamylamine 100 μM", "value": "20.0 ± 2.0"}, {"measurement": "lobeline-evoked total [3H]overflow", "setting": "[2]; lobeline 100 μM, mecamylamine 0 μM", "value": "185.0 ± 12"}, {"measurement": "lobeline-evoked total [3H]overflow", "setting": "[2]; lobeline 100 μM, mecamylamine 1 μM", "value": "180.0 ± 47.6"}, {"measurement": "lobeline-evoked total [3H]overflow", "setting": "[2]; lobeline 100 μM, mecamylamine 10 μM", "value": "179.5 ± 12.2"}, {"measurement": "lobeline-evoked total [3H]overflow", "setting": "[2]; lobeline 100 μM, mecamylamine 100 μM", "value": "160.4 ± 30.2"}, {"measurement": "inhibition of lobeline-evoked [3H]overflow by mecamylamine", "setting": "[2]; mecamylamine 1-100 μM, lobeline 0.1-100 μM", "value": "not inhibited by mecamylamine"}, {"measurement": "pKa", "setting": "[3]", "value": 8.3}, {"measurement": "concentrations inhibiting nicotine-evoked DA release", "setting": "[4]", "value": "0.1 to 1", "unit": "µM"}, {"measurement": "learning and memory", "setting": "learning and memory", "value": "improvement of learning and memory"}, {"measurement": "conditioned place preference", "setting": "[5]", "value": "does not produce conditioned place preference; also recorded: does not increase locomotor activity (Stolerman et al., 1995) or produce conditioned place preference"}, {"measurement": "effect on fractional release", "setting": "[6]; 3 μM, 15 and 20 min after addition", "value": "significant increase in fractional release"}, {"measurement": "effect on fractional release (low concentrations)", "setting": "[6]; 0.01-1 μM, entire superfusion period", "value": "did not significantly increase fractional release"}, {"measurement": "effect on fractional release (high concentrations)", "setting": "[6]; 10-100 μM, from 10 min after addition to end", "value": "significantly increased"}, {"measurement": "calcium-dependency of [3H]overflow", "setting": "[6]; calcium-free buffer vs control", "value": "not altered"}, {"measurement": "effect on [3H]overflow compared to nicotine", "setting": "[6]; higher concentrations (10-100 μM)", "value": "8-34 fold"}, {"measurement": "time of peak effect after start of exposure", "setting": "[6]; lobeline", "value": "10 to 20", "unit": "min"}, {"measurement": "total [3H]overflow", "setting": "[6]; lobeline 0.1 μM, calcium-free buffer with 0.5 mM EGTA", "value": "0 ± 0"}, {"measurement": "total [3H]overflow", "setting": "[6]; lobeline 0.1 μM, control buffer", "value": "0.6 ± 0.4"}, {"measurement": "total [3H]overflow", "setting": "[6]; lobeline 1 μM, calcium-free buffer with 0.5 mM EGTA", "value": "2.9 ± 0.2"}, {"measurement": "total [3H]overflow", "setting": "[6]; lobeline 1 μM, control buffer", "value": "2.0 ± 0.6"}, {"measurement": "total [3H]overflow", "setting": "[6]; lobeline 10 μM, calcium-free buffer with 0.5 mM EGTA", "value": "45.0 ± 4.2"}, {"measurement": "total [3H]overflow", "setting": "[6]; lobeline 10 μM, control buffer", "value": "31.9 ± 2.2"}, {"measurement": "peak fractional release", "setting": "[6]; lobeline 30 μM", "value": "approximately 15 % of total tritium in the slice"}, {"measurement": "peak fractional release", "setting": "[6]; lobeline 100 μM", "value": "~30 % of total tritium in the slice"}, {"measurement": "total [3H]overflow", "setting": "[6]; lobeline 100 μM, calcium-free buffer with 0.5 mM EGTA", "value": "185.0 ± 12.0"}, {"measurement": "total [3H]overflow", "setting": "[6]; lobeline 100 μM, control buffer", "value": "198.0 ± 20"}, {"measurement": "fractional release over the remainder of the superfusion period", "setting": "[6]; lobeline 30 and 100 μM", "value": "10-20 % of total tritium in the slice"}, {"measurement": "minimal effective concentration", "setting": "[6]; read-out: lowest concentration which evoked a significant increase in [3H]overflow", "value": 1, "unit": "µM"}, {"measurement": "lowest concentration to evoke [3H]DA release from vesicles", "setting": "[7]; 8 min, 37° C.", "value": 10, "unit": "µM"}, {"measurement": "EC50", "setting": "[7]; 8 min, 37° C., read-out: EC50, evoked [3H]DA release from synaptic vesicles", "value": "25.3 µM and 25 µM"}, {"measurement": "t1/2 of [3H]DA efflux from vesicles", "setting": "[7]; drug at 10 times the EC50", "value": "1.58 ± 0.09", "unit": "min"}, {"measurement": "acute toxicity", "setting": "[8]", "value": "nausea, severe heartburn and dizziness"}]}
